The molecules below were run against GST-Xa-hAAK1 (Homo sapiens (Human), UniProt Q2M2I8) (assay: AAK1 Kinase Assay). Details: bacterially expressed GST-Xa-hAAK1 3.5 nM; ATP 22 μM; peptide substrate 1.5 μM; 3 hours at room temperature; Caliper LabChip 3000.
Type: biochemical
Experimental: The assays were performed in U-bottom 384-well plates. […] The reactions were initiated by the combination of bacterially expressed, GST-Xa-hAAK1 with substrates and test compounds. The reactions were incubated at room temperature for 3 hours and terminated by adding 60 μl of 35 mM EDTA buffer to each sample. […] Compounds were dissolved at 10 mM in dimethylsulfoxide (DMSO) and evaluated at eleven concentrations. IC50 values were derived by non-linear regression analysis.
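Also: each compound tested across an eleven-point concentration series, with IC50 obtained through non-linear regression fitting.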

Sequence of GST-Xa-hAAK1 (Q2M2I8 whole entry): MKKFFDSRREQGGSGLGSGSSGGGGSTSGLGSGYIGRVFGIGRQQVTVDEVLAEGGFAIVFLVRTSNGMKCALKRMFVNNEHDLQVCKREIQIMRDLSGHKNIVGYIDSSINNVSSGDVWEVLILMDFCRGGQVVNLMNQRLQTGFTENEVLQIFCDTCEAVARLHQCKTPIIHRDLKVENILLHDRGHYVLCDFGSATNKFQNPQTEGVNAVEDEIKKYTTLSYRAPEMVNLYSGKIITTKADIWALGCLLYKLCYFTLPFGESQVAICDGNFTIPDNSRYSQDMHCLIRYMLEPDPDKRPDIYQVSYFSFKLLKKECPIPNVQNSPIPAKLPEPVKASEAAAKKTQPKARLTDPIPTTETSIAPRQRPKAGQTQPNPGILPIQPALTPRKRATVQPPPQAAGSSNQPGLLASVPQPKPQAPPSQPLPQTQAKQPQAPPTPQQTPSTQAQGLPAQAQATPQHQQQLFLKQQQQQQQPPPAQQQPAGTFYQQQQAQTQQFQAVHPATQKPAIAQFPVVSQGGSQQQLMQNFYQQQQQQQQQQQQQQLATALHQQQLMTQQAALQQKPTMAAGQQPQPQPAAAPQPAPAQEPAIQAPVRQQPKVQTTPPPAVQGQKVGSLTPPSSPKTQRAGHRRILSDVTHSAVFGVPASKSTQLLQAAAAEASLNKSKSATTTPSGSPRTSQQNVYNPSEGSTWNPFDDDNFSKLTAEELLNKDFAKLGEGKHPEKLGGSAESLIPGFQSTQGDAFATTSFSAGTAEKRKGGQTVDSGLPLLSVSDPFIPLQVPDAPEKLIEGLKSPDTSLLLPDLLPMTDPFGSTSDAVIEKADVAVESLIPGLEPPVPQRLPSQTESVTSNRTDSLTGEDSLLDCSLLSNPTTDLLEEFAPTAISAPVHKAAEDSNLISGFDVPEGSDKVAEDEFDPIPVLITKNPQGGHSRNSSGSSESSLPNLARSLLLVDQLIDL

| IC50 [pM] | SMILES |
| --- | --- |
| 2700 | CC(=O)Nc1cc(-c2ccc(OC[C@@H](N)CC(C)C)c(F)c2)ccn1 [Example 1, (S)—N-(4-(4-((2-amino-4-methylpentyl)oxy)-3-fluorophenyl)pyridin-2-yl)acetamide] |
| 3000 | COc1cc(-c2ccnc(NC(C)=O)c2)ccc1OC[C@@H](N)CC(C)C [Example 2, (S)—N-(4-(4-((2-amino-4-methylpentyl)oxy)-3-methoxyphenyl)pyridin-2-yl)acetamide] |
| 300 | CC(=O)Nc1cc(-c2ccc(OC[C@@H](N)CC(C)C)c(C#N)c2)ccn1 [Example 3, (S)—N-(4-(4-((2-amino-4-methylpentyl)oxy)-3-cyanophenyl)pyridin-2-yl)acetamide] |
| 2800 | CC(C)C[C@H](N)COc1ccc(-c2ccnc(N)c2)cc1C#N [Example 4, (S)-2-((2-amino-4-methylpentyl)oxy)-5-(2-aminopyridin-4-yl)benzonitrile] |
| 500 | CC(=O)Nc1cc(-c2ccc(OC[C@@H](N)CC(C)C)c(C(F)(F)F)c2)ccn1 [Example 5, (S)—N-(4-(4-((2-amino-4-methylpentyl)oxy)-3-(trifluoromethyl)phenyl)pyridin-2-yl)acetamide] |
| 470 | CC(=O)Nc1cc(-c2ccc(OC[C@@H](N)CC(C)C)c(OC(F)(F)F)c2)ccn1 [Example 6, (S)—N-(4-(4-((2-amino-4-methylpentyl)oxy)-3-(trifluoromethoxy)phenyl)pyridin-2-yl)acetamide] |
| 420 | CC(=O)Nc1cc(-c2ccc(OC[C@@H](N)CC(C)C)c(C)c2)ccn1 [Example 7, (S)—N-(4-(4-((2-amino-4-methylpentyl)oxy)-3-methylphenyl)pyridin-2-yl)acetamide] |
| 530 | CC(=O)Nc1cc(-c2ccc(OC[C@@H](N)CC(C)C)c(Cl)c2)ccn1 [Example 8, (S)—N-(4-(4-((2-amino-4-methylpentyl)oxy)-3-chlorophenyl)pyridin-2-yl)acetamide] |
| 10000 | CC(=O)Nc1cc(-c2cc(F)c(OC[C@@H](N)CC(C)C)c(Cl)c2)ccn1 [Example 10, (S)—N-(4-(4-((2-amino-4-methylpentyl)oxy)-3-chloro-5-fluorophenyl)pyridin-2-yl)acetamide] |
| 3300 | CC(=O)Nc1cc(-c2cc(F)c(OC[C@@H](N)CC(C)C)c(C(F)(F)F)c2)ccn1 [Example 11, (S)—N-(4-(4-((2-amino-4-methylpentyl)oxy)-3-fluoro-5-(trifluoromethyl)phenyl)pyridin-2-yl)acetamide] |
| 1600 | CC(=O)Nc1cc(-c2cc(F)c(OC[C@@H](N)CC(C)C)cc2F)ccn1 [Example 12, (S)—N-(4-(4-((2-amino-4-methylpentyl)oxy)-2,5-difluorophenyl)pyridin-2-yl)acetamide] |
| 1100 | COC(=O)Nc1cc(-c2ccc(OC[C@@H](N)CC(C)C)c(F)c2)ccn1 [Example 13, (S)-methyl (4-(4-((2-amino-4-methylpentyl)oxy)-3-fluorophenyl)pyridin-2-yl)carbamate] |
| 870 | COC(=O)Nc1cc(-c2ccc(OC[C@@H](N)CC(C)C)c(-c3ccno3)c2)ccn1 [Example 14, (S)-methyl (4-(4-((2-amino-4-methylpentyl)oxy)-3-(isoxazol-5-yl)phenyl)pyridin-2-yl)carbamate] |
| 810 | Cc1cc(-c2ccc(OC[C@@H](N)CC(C)C)c(C#N)c2)ccn1 [Example 15, (S)-2-((2-amino-4-methylpentyl)oxy)-5-(2-methylpyridin-4-yl)benzonitrile] |
| 5000 | Cc1cc(-c2ccc(OC[C@@H](N)CC(C)C)c(-c3ccno3)c2)ccn1 [Example 18, (S)-1-(2-(isoxazol-5-yl)-4-(2-methylpyridin-4-yl)phenoxy)-4-methylpentan-2-amine] |
| 360 | CC(=O)Nc1cc(-c2ccc(OC[C@@](C)(N)CC(C)C)c(C(F)(F)F)c2)ccn1 [Example 19, (S)—N-(4-(4-((2-amino-2,4-dimethylpentyl)oxy)-3-(trifluoromethyl)phenyl)pyridin-2-yl)acetamide] |
| 340 | COC(=O)Nc1cc(-c2ccc(OC[C@@](C)(N)CC(C)C)c(C(F)(F)F)c2)ccn1 [Example 20, (S)-methyl (4-(4-((2-amino-2,4-dimethylpentyl)oxy)-3-(trifluoromethyl)phenyl)pyridin-2-yl)carbamate] |
| 740 | CC(=O)Nc1cc(-c2ccc(OC[C@@](C)(N)CC(C)C)c(C#N)c2)ccn1 [Example 21, (S)—N-(4-(4-((2-amino-2,4-dimethylpentyl)oxy)-3-cyanophenyl)pyridin-2-yl)acetamide] |
| 650 | COC(=O)Nc1cc(-c2ccc(OC[C@@](C)(N)CC(C)C)c(C#N)c2)ccn1 [Example 22, (S)-methyl (4-(4-((2-amino-2,4-dimethylpentyl)oxy)-3-cyanophenyl)pyridin-2-yl)carbamate] |
| 760 | CC(=O)Nc1cc(-c2ccc(OC[C@@](C)(N)CC(C)C)c(C(F)F)c2)ccn1 [Example 23, (S)—N-(4-(4-((2-amino-2,4-dimethylpentyl)oxy)-3-(difluoromethyl)phenyl)pyridin-2-yl)acetamide] |

| IC50 [pM] | SMILES |
| --- | --- |
| 630 | COC(=O)Nc1cc(-c2ccc(OC[C@@](C)(N)CC(C)C)c(C(F)F)c2)ccn1 [Example 24, (S)-methyl (4-(4-((2-amino-2,4-dimethylpentyl)oxy)-3-(difluoromethyl)phenyl)pyridin-2-yl)carbamate] |
| 1000 | CC(=O)Nc1cc(-c2ccc(OC[C@@](C)(N)CC(C)C)c(OC(F)(F)F)c2)ccn1 [Example 25, (S)—N-(4-(4-((2-amino-2,4-dimethylpentyl)oxy)-3-(trifluoromethoxy)phenyl)pyridin-2-yl)acetamide] |
| 690 | COC(=O)Nc1cc(-c2ccc(OC[C@@](C)(N)CC(C)C)c(OC(F)(F)F)c2)ccn1 [Example 26, (S)-methyl (4-(4-((2-amino-2,4-dimethylpentyl)oxy)-3-(trifluoromethoxy)phenyl)pyridin-2-yl)carbamate] |
| 1000 | CC(=O)Nc1cc(-c2ccc(OC[C@@](C)(N)CC(C)C)c(F)c2)ccn1 [Example 27, (S)—N-(4-(4-((2-amino-2,4-dimethylpentyl)oxy)-3-fluorophenyl)pyridin-2-yl)acetamide] |
| 1200 | COC(=O)Nc1cc(-c2ccc(OC[C@@](C)(N)CC(C)C)c(F)c2)ccn1 [Example 28, (S)-methyl (4-(4-((2-amino-2,4-dimethylpentyl)oxy)-3-fluorophenyl)pyridin-2-yl)carbamate] |
| 670 | COC(=O)Nc1cc(-c2ccc(OCC(C)(N)CC(C)C)c(Cl)c2)ccn1 (stereo not drawn) [Example 29, methyl (4-(4-((2-amino-2,4-dimethylpentyl)oxy)-3-chlorophenyl)pyridin-2-yl)carbamate] |
| 1400 | COC(=O)Nc1cc(-c2ccc(OCC(C)(N)CC(C)C)c(C)c2)ccn1 (stereo not drawn) [Example 30, methyl (4-(4-((2-amino-2,4-dimethylpentyl)oxy)-3-methylphenyl)pyridin-2-yl)carbamate] |
| 4500 | COC(=O)Nc1cc(-c2ccc(OCC(C)(N)CC(C)C)c(C)c2C)ccn1 (stereo not drawn) [Example 31, methyl (4-(4-((2-amino-2,4-dimethylpentyl)oxy)-2,3-dimethylphenyl)pyridin-2-yl)carbamate] |
| 4500 | COC(=O)Nc1cc(-c2ccc(OC[C@@](C)(N)CC(C)C)c(CO)c2)ccn1 [Example 32, (S)-methyl (4-(4-((2-amino-2,4-dimethylpentyl)oxy)-3-(hydroxymethyl)phenyl)pyridin-2-yl)carbamate] |
| 320 | COC(=O)Nc1cc(-c2ccc(OC[C@@](C)(N)CC(C)C)c(C3CC3)c2)ccn1 [Example 33, (S)-methyl (4-(4-((2-amino-2,4-dimethylpentyl)oxy)-3-cyclopropylphenyl)pyridin-2-yl)carbamate] |
| 15000 | CC(=O)Nc1cc(-c2ccc(OC[C@@](C)(N)CC(C)C)c(C(F)(F)F)c2)c(CO)cn1 [Example 34, (S)—N-(4-(4-((2-amino-2,4-dimethylpentyl)oxy)-3-(trifluoromethyl)phenyl)-5-(hydroxymethyl)pyridin-2-yl)acetamide] |
| 770 | CC(C)C[C@](C)(N)COc1ccc(-c2ccnc(C(F)F)c2)cc1C(F)(F)F [Example 35, (S)-1-(4-(2-(difluoromethyl)pyridin-4-yl)-2-(trifluoromethyl)phenoxy)-2,4-dimethylpentan-2-amine] |
| 890 | CC(C)C[C@](C)(N)COc1ccc(-c2ccnc(C(F)F)c2)cc1C#N [Example 36, (S)-2-((2-amino-2,4-dimethylpentyl)oxy)-5-(2-(difluoromethyl)pyridin-4-yl)benzonitrile] |
| 510 | CC(C)C[C@](C)(N)COc1ccc(-c2ccnc(C(F)F)c2)cc1C(F)F [Example 37, (S)-1-(2-(difluoromethyl)-4-(2-(difluoromethyl)pyridin-4-yl)phenoxy)-2,4-dimethylpentan-2-amine] |
| 790 | CC(C)C[C@](C)(N)COc1ccc(-c2ccnc(C(F)F)c2)cc1OC(F)(F)F [Example 38, (S)-1-(4-(2-(difluoromethyl)pyridin-4-yl)-2-(trifluoromethoxy)phenoxy)-2,4-dimethylpentan-2-amine] |
| 3200 | CC(C)C[C@](C)(N)COc1ccc(-c2ccnc(F)c2Cl)cc1C(F)(F)F [Example 39, (S)-1-(4-(3-chloro-2-fluoropyridin-4-yl)-2-(trifluoromethyl)phenoxy)-2,4-dimethylpentan-2-amine] |
| 8700 | CC(C)C[C@](C)(N)COc1ccc(-c2cc(F)ncc2Cl)cc1C(F)(F)F [Example 40, (S)-1-(4-(5-chloro-2-fluoropyridin-4-yl)-2-(trifluoromethyl)phenoxy)-2,4-dimethylpentan-2-amine] |
| 3800 | Cc1c(-c2ccc(OC[C@@](C)(N)CC(C)C)c(C(F)(F)F)c2)ccnc1F [Example 41, (S)-1-(4-(2-fluoro-3-methylpyridin-4-yl)-2-(trifluoromethyl)phenoxy)-2,4-dimethylpentan-2-amine] |
| 3300 | CC(C)C[C@](C)(N)COc1ccc(-c2ccnc(F)c2F)cc1C(F)(F)F [Example 42, (S)-1-(4-(2,3-difluoropyridin-4-yl)-2-(trifluoromethyl)phenoxy)-2,4-dimethylpentan-2-amine] |

From patent US9902722B2, “Biaryl kinase inhibitors” (BRISTOL-MYERS SQUIBB COMPANY, priority 2014, dated 2018)
